Reference: PubChem BioAssay (NCI)
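These data come from cells grown in 96-well plates and exposed to compound for 48 hours at five concentrations. Definition used: TGI = concentration required for complete inhibition of growth.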

Experiments:
Experiment in all cases: NCI-60 cell line screen, 48 h
786-0 renal = system: 786-0 renal
A549 NSCLC = system: A549 NSCLC
ACHN renal = system: ACHN renal
CAKI-1 renal = system: CAKI-1 renal
CCRF-CEM leukemia = system: CCRF-CEM leukemia
COLO 205 colon = system: COLO 205 colon
DLD-1 colon = system: DLD-1 colon
DMS 273 small cell lung = system: DMS 273 small cell lung
EKVX NSCLC = system: EKVX NSCLC
HCC-2998 colon = system: HCC-2998 colon
HCT-116 colon = system: HCT-116 colon
HCT-15 colon = system: HCT-15 colon
HL-60(TB) leukemia = system: HL-60(TB) leukemia
HOP-18 NSCLC = system: HOP-18 NSCLC
HOP-62 NSCLC = system: HOP-62 NSCLC
HOP-92 NSCLC = system: HOP-92 NSCLC
HT29 colon = system: HT29 colon
IGROV1 ovarian = system: IGROV1 ovarian
K-562 leukemia = system: K-562 leukemia
KM12 colon = system: KM12 colon
KM20L2 colon = system: KM20L2 colon
LOX IMVI melanoma = system: LOX IMVI melanoma
LXFL 529 NSCLC = system: LXFL 529 NSCLC
M14 melanoma = system: M14 melanoma
M19-MEL melanoma = system: M19-MEL melanoma
MOLT-4 leukemia = system: MOLT-4 leukemia
NCI-H226 lung = system: NCI-H226 lung
NCI-H23 lung = system: NCI-H23 lung
NCI-H460 lung = system: NCI-H460 lung
NCI-H522 lung = system: NCI-H522 lung
OVCAR-3 ovarian = system: OVCAR-3 ovarian
OVCAR-4 ovarian = system: OVCAR-4 ovarian
OVCAR-5 ovarian = system: OVCAR-5 ovarian
OVCAR-8 ovarian = system: OVCAR-8 ovarian
RPMI-8226 leukemia = system: RPMI-8226 leukemia
RXF 393 renal = system: RXF 393 renal
RXF-631 renal = system: RXF-631 renal
SF-268 CNS = system: SF-268 CNS
SF-295 CNS = system: SF-295 CNS
SF-539 CNS = system: SF-539 CNS
SK-MEL-2 melanoma = system: SK-MEL-2 melanoma
SK-MEL-28 melanoma = system: SK-MEL-28 melanoma
SK-MEL-5 melanoma = system: SK-MEL-5 melanoma
SK-OV-3 ovarian = system: SK-OV-3 ovarian
SN12C renal = system: SN12C renal
SNB-19 CNS = system: SNB-19 CNS
SNB-78 CNS = system: SNB-78 CNS
SR leukemia = system: SR leukemia
SW-620 colon = system: SW-620 colon
TK-10 renal = system: TK-10 renal
U251 CNS = system: U251 CNS
UACC-257 melanoma = system: UACC-257 melanoma
UACC-62 melanoma = system: UACC-62 melanoma
UO-31 renal = system: UO-31 renal
XF 498 CNS = system: XF 498 CNS
A498 renal = system: A498 renal
DMS 114 small cell lung = system: DMS 114 small cell lung
MALME-3M melanoma = system: MALME-3M melanoma
SNB-75 CNS = system: SNB-75 CNS

Measured: TGI

CC(=O)O[C@H]1C=CC23OC(=O)[C@]1(C)[C@H]2[C@H](C(=O)O)C12CC(=O)[C@@](CO)(CC[C@H]13)C2
not listed: A498 renal | DMS 114 small cell lung | MALME-3M melanoma | SNB-75 CNS
> 100 µM: all other assays above

COC(=O)C1C2CC3C(OC(=O)C31)C2OC(=O)[C@](OC)(c1ccccc1)C(F)(F)F (stereo partly specified)
not listed: HOP-18 NSCLC | SF-295 CNS | UACC-62 melanoma
> 100 µM: all other assays above
